Patent US20100248224A1, “DNA FRAGMENTATION ASSAY” (priority 2006, published 2010)

Key:
Assay type in all cases: cell-based, human
HL-60 cells [1] = assay: Inhibition of camptothecin-induced DNA fragmentation in HL-60 cells, PicoGreen detection; settings: 20 hours, FIG. 6
Text: Zinc has been known to inhibit apoptosis induced by both chemical and death-receptor agonists. […] DNA fragments released from cells were quantified with PicoGreen reagent as described above. For samples with camptothecin, without zinc chloride or at low concentrations, fluorescence signal was more than 3 fold of that from samples with DMSO treatment.

HL-60 cells [2] = assay: PicoGreen detection of DNA fragmentation in HL-60 cell lysates; settings: for EC50: HL-60 cells 0.3 million cells/ml, treated 20 hours, FIG. 3, read-out: EC50 value, DNA fragmentation detected with PicoGreen
Experimental: An equal volume of the lysis buffer (20 mM Tris-HCl (pH 8.0), 20 mM EDTA, 0.2% Tween-20 and 5 ug/mL RNase) was added into the total cell culture. […] The dose response curve of camptothecin using PicoGreen detection (FIG. 3) was compared to propidium iodide detection (FIG. 4).

HL-60 cells [3] = assay: ELISA detection of DNA fragmentation in HL-60 cell lysates (Cell Death Detection ELISA kit); settings: HL-60 cells 0.3 million cells/ml, treated 20 hours, FIG. 5, read-out: EC50 value, DNA fragmentation determined by ELISA
HL-60 cells [4] = assay: DMSO tolerance in HL-60 cells, PicoGreen fluorescent assay; settings: 20 hr incubation, 0.3 million cells/mL, FIG. 11
Experimental: HL-60 cells in mid-log phase (0.3 million cells/mL) were treated with different doses of DMSO for 20 hours. An equal volume of the lysis buffer (20 mM Tris-HCl (pH 8.0), 20 mM EDTA, 0.2% Tween-20 and 5 ug/ml. RNase) was added into the total cell culture. The cell lysate was centrifuged at 2000×g for 20 min. The top portion of the supernatant was withdrawn and DNA content was quantitated using the PicoGreen fluorescent assay.

For `[Cl-].[Cl-].[Zn+2]` [zinc chloride], the “magnitude of camptothecin-induced DNA fragmentation (level of fluorescent signal)” value (HL-60 cells [1]; zinc chloride 100 uM or higher, with 3.2 μM camptothecin) was “decreased to the same level as samples with DMSO treatment only”.

Molecule Neomycin has an EC50 (HL-60 cells [2]) greater than 100000 nM and an EC50 (HL-60 cells [3]) greater than 100000 nM.

With `CC[C@@]1(O)C(=O)OCc2c1cc1n(c2=O)Cc2cc3ccccc3nc2-1` [camptothecin, Camptothecin] the PicoGreen fluorescence intensity (HL-60 cells [2]; 3.2 uM for 5.5 hours vs 0.1% DMSO, 0.4 million cells/mL, FIG. 1) was “increased”, the “DNA fragmentation, time course” value (HL-60 cells [2]; 3.2 uM, at 4 hours of treatment, FIG. 8) was “significant increase in DNA fragmentation” and the EC50 (HL-60 cells [2]; Homo sapiens) was 1480 nM. The EC50 (HL-60 cells [3]; Homo sapiens) was 1110 nM and the “fluorescence signal relative to samples with DMSO treatment” value (HL-60 cells [1]; 3.2 μM camptothecin, without zinc chloride or at low concentrations) was “more than 3 fold”.

`C[S+](C)[O-]` [DMSO, dimethyl sulfoxide] was tested, and the “DMSO concentration tolerated by HL-60 cells” value (HL-60 cells [4]) was “up to 1%”.
